Data: publication PMC5642494 (Oncotarget, 2017)

Tested on: ZR-75-1 xenograft tumors
Assay: mRNA expression of cell cycle regulatory genes in ZR-75-1 xenograft tumors
Assay type: in vivo, mouse
Details: 50 or 75 mg/kg QDx5; Cyclin E, MCM7, CDKN2C, PTEN, AURA, CCNB1, FOXM1, RRM2, MKI67, Topo IIα
Protocol: page 4: or pHH3 facilitates quantification of the inhibition of #79654). The suspension was placed on the Qiashredder cell cycle progression since lower expression of these 2 columns (Qiagen #79654) and RNA was purified by biomarkers quantitatively correlates with the extent of following the protocol for the RNAeasy Mini Kit (Qiagen progression of cells through either S-phase (Topo IIα) or # 74104). Following the last wash, the purified RNA was M-phase (pHH3). The inhibition of CDK9 was assessed eluted using […] RNase-free water and collected in by measuring the inhibition of either MCL1 expression labeled DNase/RNase-free collection tubes. The quantity or phosphorylation of […] on the C-terminal domain of RNA was measured by spectral analysis using the repeat on RNA polymerase II (pCTD). The visualization Nanodrop Spectrophotometer (NanoDrop Products, of the signals corresponding to these biomarkers was Wilmington, DE, USA) and then placed in -80 degree […] achieved through development with the ECL SuperSignal freezer for analysis. The cDNA preparation was completed chemo-luminescence kit (Pierce) and image capture using as described in the included kit protocol using Superscript the Fuji LAS400 image capture instrument. […] Isolation and purification of RNA from tumors All samples, once quantitated, were delivered to […] […]

## CCN1CCN(Cc2ccc(Nc3ncc(F)c(-c4cc(F)c5nc(C)n(C(C)C)c5c4)n3)nc2)CC1 [abemaciclib, Abemaciclib]
  mRNA expression of cell cycle genes in tumors: suppression of the expression of several genes
